Measured values as given in patent US10450311B2, “Pesticidally active heterocyclic derivatives with sulphur containing substituents” (Syngenta Participations AG, priority 2014, dated 2019).

Experiments:
Type in all cases: in vivo
[1] = tested on: Spodoptera littoralis (Egyptian Cotton Leaf Worm); assay: Activity against Spodoptera littoralis, sprayed cotton leaf discs; conditions: foliar, 72 h, application rate of 200 ppm, L1 larvae on cotton leaf discs, 3 days after infestation, read-out: control (at least one of mortality, anti-feedant effect, growth inhibition)
Experimental: Example B9: Activity Against Spodoptera littoralis (Egyptian Cotton Leaf Worm)
Cotton leaf discs were placed on agar in 24-well microtiter plates and sprayed with aqueous test solutions prepared from 10′000 ppm DMSO stock solutions. After drying the leaf discs were infested with five L1 larvae. The samples were assessed for mortality, anti-feedant effect, and growth inhibition in comparison to untreated samples 3 days after infestation. Control of Spodoptera littoralis by a test sample is when at least one of mortality, anti-feedant effect, and growth inhibition is higher than the untreated sample.

[2] = tested on: Spodoptera littoralis (Egyptian Cotton Leaf Worm); assay: Activity against Spodoptera littoralis, compound in agar taken up by lettuce; conditions: 144 h, test rate of 12.5 ppm, lettuce root uptake, 6 days after infestation, read-out: effect in at least one of the three categories (mortality, anti-feedancy, or growth inhibition)
Description: Example B10: Activity Against Spodoptera littoralis (Egyptian Cotton Leaf Worm)
(§1) Test compounds were applied by pipette from 10′000 ppm DMSO stock solutions into 24-well plates and mixed with agar. Lettuce seeds were placed on the agar and the multi well plate was closed by another plate which contains also agar. After 7 days the roots have absorbed the compound and the lettuce has grown into the lid plate. The lettuce leafs were now cut off into the lid plate. Spodoptera eggs were pipetted through a plastic stencil on a humid gel blotting paper and the plate closed with it. The samples were assessed for mortality, anti-feedant effect and growth inhibition in comparison to untreated samples 6 days after infestation.

[3] = tested on: Aedes aegypti (Yellow Fever Mosquito); assay: whole plant or invertebrate; conditions: 48 h, test rate of 5 ppm, L2 larvae in 96-well plates, incubation period of 2 days, read-out: effect in at least one of the two categories (mortality or growth inhibition)
Experimental: Example B14: Activity Against Aedes aegypti (Yellow Fever Mosquito)
10 to 15 Aedes larvae (L2) together with a nutrition mixture were placed in 96-well microtiter plates. Test compounds were pipetted into the wells. After an incubation period of 2 days insects were assessed for mortality and growth inhibition.

[4] = tested on: Plutella xylostella (Diamond Back Moth); assay: Activity against Plutella xylostella, treated artificial diet; conditions: 120 h, application rate of 200 ppm, L2 larvae on artificial diet, 5 days after infestation, read-out: effect in at least one of the two categories (mortality or growth inhibition)
Experimental: Example B8: Activity Against Plutella xylostella (Diamond Back Moth)
24-well microtiter plates with artificial diet were treated with aqueous test solutions prepared from 10′000 ppm DMSO stock solutions by pipetting. After drying, the plates were infested with L2 larvae (10 to 15 per well). The samples were assessed for mortality and growth inhibition in comparison to untreated samples 5 days after infestation.

[5] = tested on: Euschistus heros (Neotropical Brown Stink Bug); assay: Activity against Euschistus heros, sprayed soybean leaf; conditions: 120 h, application rate of 200 ppm, N-2 nymphs on soybean leaf, 5 days after infestation
Experimental: Example B3: Activity Against Euschistus heros (Neotropical Brown Stink Bug)
Soybean leaf on agar in 24-well microtiter plates were sprayed with aqueous test solutions prepared from 10′000 ppm DMSO stock solutions. After drying the leaf were infested with N-2 nymphs. The samples were assessed for mortality 5 days after infestation.

[6] = tested on: Diabrotica balteata (Corn Root Worm); assay: Activity against Diabrotica balteata, sprayed maize sprouts; conditions: 96 h, application rate of 200 ppm, larvae on maize sprouts, 4 days after infestation
Experimental: Example B2: Activity Against Diabrotica balteata (Corn Root Worm)
Maize sprouts, placed on an agar layer in 24-well microtiter plates were treated with aqueous test solutions prepared from 10′000 ppm DMSO stock solutions by spraying. After drying, the plates were infested with […] (6 to 10 per well). The samples were assessed for mortality 4 days after infestation.

[7] = tested on: Bemisia tabaci (Cotton White Fly); assay: Activity against Bemisia tabaci, sprayed cotton leaf discs; conditions: foliar, 144 h, application rate of 200 ppm, adult white flies on cotton leaf discs, 6 days after incubation
Experimental: Example B1: Activity Against Bemisia tabaci (Cotton White Fly)
Cotton leaf discs were placed on agar in 24-well microtiter plates and sprayed with aqueous test solutions prepared from 10′000 ppm DMSO stock solutions. After drying the leaf discs were infested with adult white flies. The samples were checked for mortality 6 days after incubation. […] A35, A36 and A47. A1. A2, A3, A8, A10, A14 and A12.

[8] = tested on: Spodoptera littoralis (Egyptian Cotton Leaf Worm); assay: Activity against Spodoptera littoralis, systemic activity; conditions: 144 h, test rate of 12.5 ppm, in agar, lettuce root uptake, 6 days after infestation
Description: Example B11: Activity Against Spodoptera littoralis (Egyptian Cotton Leaf Worm), Systemic Activity
as §1, with “mortality” for “mortality, anti-feedant effect and growth inhibition in comparison to untreated samples”

[9] = tested on: Myzus persicae (Green Peach Aphid); assay: Activity against Myzus persicae, sprayed sunflower leaf discs; conditions: foliar, 144 h, application rate of 200 ppm, aphid population of mixed ages on sunflower leaf discs, 6 days after infestation
Experimental: Example B5: Activity Against Myzus persicae (Green Peach Aphid)
Sunflower leaf discs were placed on agar in a 24-well microtiter plate and sprayed with aqueous test solutions prepared from 10′000 ppm DMSO stock solutions. After drying, the leaf discs were infested with an aphid population of mixed ages. The samples were assessed for mortality 6 days after infestation.

CCSc1cc(-n2ccc(C(F)(F)F)n2)cnc1-c1nc2cc(C(F)(F)F)n(C)c(=O)c2n1C [Compound A26, 2-[3-ethylsulfanyl-5-[3-(trifluoromethyl)pyrazol-1-yl]-2-pyridyl]-3,5-dimethyl-6-(trifluoromethyl)imidazo[4,5-c]pyridin-4-one]
≥ 80%: percent control (mortality, anti-feedant effect or growth inhibition) at 200 ppm [1]

CCSc1cc(-n2cc(C(F)(F)F)cn2)cnc1-c1nc2cc(C(F)(F)F)n(C)c(=O)c2n1C [Compound A24, 2-[3-ethylsulfanyl-5-[4-(trifluoromethyl)pyrazol-1-yl]-2-pyridyl]-3,5-dimethyl-6-(trifluoromethyl)imidazo[4,5-c]pyridin-4-one]
≥ 80%: percent control (mortality, anti-feedancy or growth inhibition) at 12.5 ppm [2]

CCS(=O)(=O)c1cc(-c2ccc(C(F)(F)F)cc2)ccc1-c1nc2cc(C(F)(F)F)n(C)c(=O)c2n1C [Compound A70, 2-[2-ethylsulfonyl-4-[4-(trifluoromethyl)phenyl]phenyl]-3,5-dimethyl-6-(trifluoromethyl)imidazo[4,5-c]pyridin-4-one]
≥ 80%: percent control (mortality, anti-feedant effect or growth inhibition) at 200 ppm [1] | percent effect (mortality or growth inhibition) at 5 ppm [3] | percent effect (mortality or growth inhibition) at 200 ppm [4] | mortality at 200 ppm [5] | mortality at 200 ppm [6]

C=CCn1c(C(F)(F)F)cc2nc(-c3ncc(C(F)(F)F)cc3S(=O)(=O)CC)n(C)c2c1=O [Compound A3, 5-allyl-2-[3-ethylsulfonyl-5-(trifluoromethyl)-2-pyridyl]-3-methyl-6-(trifluoromethyl)imidazo[4,5-c]pyridin-4-one]
≥ 80%: percent control (mortality, anti-feedant effect or growth inhibition) at 200 ppm [1] | mortality at 200 ppm [7] | percent effect (mortality or growth inhibition) at 200 ppm [4] | mortality at 200 ppm [5] | mortality at 200 ppm [6]

CCS(=O)(=O)c1cc(-c2cc(F)cc(F)c2)cnc1-c1nc2cc(C(F)(F)F)n(C)c(=O)c2n1C [Compound A28, 2-[5-(3,5-difluorophenyl)-3-ethylsulfonyl-2-pyridyl]-3,5-dimethyl-6-(trifluoromethyl)imidazo[4,5-c]pyridin-4-one]
≥ 80%: percent control (mortality, anti-feedancy or growth inhibition) at 12.5 ppm [2] | percent control (mortality, anti-feedant effect or growth inhibition) at 200 ppm [1] | percent effect (mortality or growth inhibition) at 5 ppm [3] | percent effect (mortality or growth inhibition) at 200 ppm [4] | mortality at 200 ppm [5] | mortality at 200 ppm [6] | mortality at 12.5 ppm [8]

CCSc1cc(-c2ccc(C(F)(F)F)cc2)cnc1-c1nc2cc(C(F)(F)F)c(=O)n(C)c2n1C [Compound B5, 2-[3-ethylsulfanyl-5-[4-(trifluoromethyl)phenyl]-2-pyridyl]-3,4-dimethyl-6-(trifluoromethyl)imidazo[4,5-b]pyridin-5-one]
≥ 80%: percent control (mortality, anti-feedant effect or growth inhibition) at 200 ppm [1] | mortality at 200 ppm [5] | mortality at 200 ppm [6]

CCS(=O)(=O)c1cc(-c2ccc(Cl)cc2)ccc1-c1nc2cc(C(F)(F)F)n(C)c(=O)c2n1C [Compound A72, 2-[4-(4-chlorophenyl)-2-ethylsulfonyl-phenyl]-3,5-dimethyl-6-(trifluoromethyl)imidazo[4,5-c]pyridin-4-one]
≥ 80%: percent control (mortality, anti-feedant effect or growth inhibition) at 200 ppm [1] | percent effect (mortality or growth inhibition) at 200 ppm [4] | mortality at 200 ppm [5] | mortality at 200 ppm [6]

CCS(=O)(=O)c1cc(-c2ccc(C(F)(F)F)cc2)cnc1-c1nc2cc(C(F)(F)F)n(C)c(=O)c2n1C [Compound A22, 2-[3-ethylsulfonyl-5-[4-(trifluoromethyl)phenyl]-2-pyridyl]-3,5-dimethyl-6-(trifluoromethyl)imidazo[4,5-c]pyridin-4-one]
≥ 80%: percent control (mortality, anti-feedancy or growth inhibition) at 12.5 ppm [2] | percent control (mortality, anti-feedant effect or growth inhibition) at 200 ppm [1] | percent effect (mortality or growth inhibition) at 5 ppm [3] | percent effect (mortality or growth inhibition) at 200 ppm [4] | mortality at 200 ppm [5] | mortality at 200 ppm [9] | mortality at 200 ppm [6] | mortality at 12.5 ppm [8]

CCS(=O)(=O)c1cc(-c2ccc(C(F)(F)F)cc2)cnc1-c1nc2cc(Br)c(=O)n(C)c2n1C [Compound B3]
≥ 80%: percent control (mortality, anti-feedant effect or growth inhibition) at 200 ppm [1] | percent effect (mortality or growth inhibition) at 200 ppm [4] | mortality at 200 ppm [5] | mortality at 200 ppm [9] | mortality at 200 ppm [6]

CCS(=O)(=O)c1cc(-c2ccc(C#N)cc2)cnc1-c1nc2cc(C(F)(F)F)n(C)c(=O)c2n1C [Compound A41, 4-[6-[3,5-dimethyl-4-OXO-6-(trifluoromethyl)imidazo[4,5-c]pyridin-2-yl]-5-ethylsulfonyl-3-pyridyl]benzonitrile]
≥ 80%: percent control (mortality, anti-feedancy or growth inhibition) at 12.5 ppm [2] | percent control (mortality, anti-feedant effect or growth inhibition) at 200 ppm [1] | percent effect (mortality or growth inhibition) at 5 ppm [3] | percent effect (mortality or growth inhibition) at 200 ppm [4] | mortality at 200 ppm [5] | mortality at 200 ppm [9] | mortality at 200 ppm [6] | mortality at 12.5 ppm [8]

CCS(=O)(=O)c1cc(-c2cc(C(F)(F)F)ccn2)cnc1-c1nc2cc(C(F)(F)F)n(C)c(=O)c2n1C [Compound A42]
≥ 80%: percent control (mortality, anti-feedancy or growth inhibition) at 12.5 ppm [2] | percent control (mortality, anti-feedant effect or growth inhibition) at 200 ppm [1] | percent effect (mortality or growth inhibition) at 5 ppm [3] | percent effect (mortality or growth inhibition) at 200 ppm [4] | mortality at 200 ppm [5] | mortality at 200 ppm [9] | mortality at 200 ppm [6] | mortality at 12.5 ppm [8]

CCS(=O)(=O)c1cc(-c2ncccn2)ccc1-c1nc2cc(C(F)(F)F)n(C)c(=O)c2n1C [Compound A71, 2-(2-ethylsulfonyl-4-pyrimidin-2-yl-phenyl)-3,5-dimethyl-6-(trifluoromethyl)imidazo[4,5-c]pyridin-4-one]
≥ 80%: percent control (mortality, anti-feedant effect or growth inhibition) at 200 ppm [1] | percent effect (mortality or growth inhibition) at 200 ppm [4] | mortality at 200 ppm [5] | mortality at 200 ppm [9]

CCS(=O)(=O)c1cc(Br)cnc1-c1nc2cc(C(F)(F)F)n(C)c(=O)c2n1C [Compound A21, 2-[5-bromo-3-ethylsulfonyl-2-pyridyl]-3,5-dimethyl-6-(trifluoromethyl)imidazo[4,5-c]pyridin-4-one]
≥ 80%: percent control (mortality, anti-feedancy or growth inhibition) at 12.5 ppm [2] | percent control (mortality, anti-feedant effect or growth inhibition) at 200 ppm [1] | percent effect (mortality or growth inhibition) at 200 ppm [4] | mortality at 200 ppm [5] | mortality at 200 ppm [9] | mortality at 200 ppm [6] | mortality at 12.5 ppm [8]

CCS(=O)(=O)c1cc(-n2ccc(C(F)(F)F)n2)cnc1-c1nc2cc(C(F)(F)F)n(C)c(=O)c2n1C [Compound A27]
≥ 80%: percent control (mortality, anti-feedant effect or growth inhibition) at 200 ppm [1]
